For the assay, the target named is T1, His-tagged full-length RSK2 (RPS6KA3) (Homo sapiens, UniProt P51812).
T1 construct: His-tagged full-length RSK2 (RPS6KA3, Invitrogen PV3323); His; purchased Invitrogen PV3323
Briefly: RSK2 Omnia Assay for compound IC50 determination. It is filed as biochemical. As to conditions: ATP 15 μM, n=2, read-out: Mean RSK2 Biochem IC50. The method, boiled down:
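Initial-rate slopes from continuous kinetic reads were fitted to a four-parameter equation for IC50 (n=2). Ki was then derived by Cheng-Prusoff assuming ATP-competitive inhibition. Reactions contained 15 μM ATP (Km 16.3 μM), 5 μM Omnia ST Peptide 6, and […] in 50 mM HEPES pH 7.5, 10 mM MgCl2, 1 mM DTT, 1% DMSO. Compounds spanned 11 threefold steps, […] final.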

Drawing on patent US9351974B2, “Substituted pteridinones for the treatment of cancer” (OSI Pharmaceuticals, LLC, priority 2011, dated 2016), this text covers IC50 for 28 compounds.

Usually IC50 stands for the concentration that gives 50% inhibition.

T1 sequence (P51812 whole entry): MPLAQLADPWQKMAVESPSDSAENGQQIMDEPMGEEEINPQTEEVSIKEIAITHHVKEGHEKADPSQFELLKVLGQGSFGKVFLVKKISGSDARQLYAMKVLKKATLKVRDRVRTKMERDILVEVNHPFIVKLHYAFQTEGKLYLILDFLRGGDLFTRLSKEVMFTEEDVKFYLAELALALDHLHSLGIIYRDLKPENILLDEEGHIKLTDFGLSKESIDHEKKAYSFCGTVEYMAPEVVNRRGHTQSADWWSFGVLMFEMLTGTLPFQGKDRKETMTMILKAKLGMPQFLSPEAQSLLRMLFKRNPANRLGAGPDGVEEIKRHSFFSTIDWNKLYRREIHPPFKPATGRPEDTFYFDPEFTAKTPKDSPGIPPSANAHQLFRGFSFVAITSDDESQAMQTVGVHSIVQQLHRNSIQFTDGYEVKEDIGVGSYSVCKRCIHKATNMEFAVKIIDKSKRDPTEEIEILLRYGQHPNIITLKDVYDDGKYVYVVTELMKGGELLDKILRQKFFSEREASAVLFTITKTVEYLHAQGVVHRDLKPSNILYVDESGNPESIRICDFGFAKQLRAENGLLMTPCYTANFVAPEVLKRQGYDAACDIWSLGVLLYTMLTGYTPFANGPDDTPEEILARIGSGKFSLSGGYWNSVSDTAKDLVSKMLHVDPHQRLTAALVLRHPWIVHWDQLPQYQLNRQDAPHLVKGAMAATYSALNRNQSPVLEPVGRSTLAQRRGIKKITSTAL

`CC(C)CCN1c2nc(Nc3cc(F)c4[nH]c(=O)oc4c3)ncc2N(c2cccc(C#N)c2)C(=O)[C@H]1C` [Example 90, 3-[(7R)-2-[(4-fluoro-2-oxo-2,3-dihydro-1,3-benzoxazol-6-yl)amino]-7-methyl-8-(3-methylbutyl)-6-oxo-7,8-dihydropteridin-5(6H)-yl]benzonitrile]: the IC50 is no more than 100 nM.
In the case of `C[C@@H]1C(=O)N(c2cccc(C#N)c2)c2cnc(Nc3ccc4[nH]ncc4c3)nc2N1CC1CCOCC1` [Example 80, 3-[(7R)-2-(1H-indazol-5-ylamino)-7-methyl-6-oxo-8-(tetrahydro-2H-pyran-4-ylmethyl)-7,8-dihydropteridin-5(6H)-yl]benzonitrile], the half-inhibitory concentration (IC50) was no more than 100 nM.
As to `CCOc1ccc(N2C(=O)[C@@H](C)N(C3CCOCC3)c3nc(Nc4cnc5[nH]ncc5c4)ncc32)cc1C#N` [compound 201, 2-Ethoxy-5-[(7R)-7-methyl-6-oxo-2-(1H-pyrazolo[3,4-b]pyridin-5-ylamino)-8-(tetrahydro-2H-pyran-4-yl)-7,8-dihydropteridin-5(6H)-yl]benzonitrile], the IC50 was no more than 100 nM.
Regarding `CC(C)CCN1c2nc(N[C@H]3CC[C@@H](O)CC3)ncc2N(c2ccccc2)C(=O)C1C` (relative stereo) [Example 12, 2-[(cis-4-hydroxycyclohexyl)amino]-7-methyl-8-(3-methylbutyl)-5-phenyl-7,8-dihydropteridin-6(5H)-one], the concentration for half-maximal inhibition (IC50) is greater than 1000 nM.
Regarding `COc1c(Nc2ncc3c(n2)N(C2CCCCC2)[C@H](C)C(=O)N3c2cccc(C#N)c2)ccc2[nH]ncc12` [compound 102, 3-[(7R)-8-cyclohexyl-2-[(4-methoxy-1H-indazol-5-yl)amino]-7-methyl-6-oxo-7,8-dihydropteridin-5(6H)-yl]benzonitrile], the half-inhibitory concentration (IC50) was 100 to 1000 nM.
In the case of `Cc1n[nH]c2ccc(Nc3ncc4c(n3)N(C3CCCCC3)[C@H](C)C(=O)N4c3cccc(C#N)c3)cc12` [compound 103, 3-[(7R)-8-cyclohexyl-7-methyl-2-[(3-methyl-1H-indazol-5-yl)amino]-6-oxo-7,8-dihydropteridin-5(6H)-yl]benzonitrile], the half-inhibitory concentration (IC50) fell in the range of 100 to 1000 nM.
The result for `C[C@@H]1C(=O)N(c2cnn(C)c2)c2cnc(Nc3ccc4[nH]ncc4c3)nc2N1C1CCCCC1` [Example 58, (7R)-8-cyclohexyl-2-(1H-indazol-5-ylamino)-7-methyl-5-(1-methyl-1H-pyrazol-4-yl)-7,8-dihydropteridin-6(5H)-one] reads no more than 100 nM; that for `C[C@@H]1C(=O)N(c2ccc(OC(F)(F)F)cc2)c2cnc(Nc3ccc4[nH]ncc4c3)nc2N1C1CCCCC1` [Example 33, (7R)-8-cyclohexyl-2-(1H-indazol-5-ylamino)-7-methyl-5-[4-(trifluoromethoxy)phenyl]-7,8-dihydropteridin-6(5H)-one], 100 to 1000 nM; that for `C[C@@H]1C(=O)N(c2ccn(C)c(=O)c2)c2cnc(Nc3cc(F)c4[nH]ncc4c3)nc2N1C1CCCCC1` [compound 176, (7R)-8-cyclohexyl-2-[(7-fluoro-1H-indazol-5-yl)amino]-7-methyl-5-(1-methyl-2-oxo-1,2-dihydropyridin-4-yl)-7,8-dihydropteridin-6(5H)-one], no more than 100 nM.
In the case of `CO[C@H]1CC[C@H](N2c3nc(Nc4cc(F)c(O)c(F)c4)ncc3N(c3cccc(C#N)c3)C(=O)[C@H]2C)CC1` [compound 232, 3-[(7R)-2-[(3,5-difluoro-4-hydroxyphenyl)amino]-8-(trans-4-methoxycyclohexyl)-7-methyl-6-oxo-7,8-dihydropteridin-5(6H)-yl]benzonitrile], the concentration for half-maximal inhibition (IC50) is no more than 100 nM.
`CC(C)CCN1c2cc(Nc3ccc4[nH]ncc4c3)ncc2N(c2ccccc2)C(=O)C1C` (stereo not shown) [Example 310, 7-(1H-indazol-5-ylamino)-2-methyl-1-(3-methylbutyl)-4-phenyl-1,4-dihydropyrido[3,4-b]pyrazin-3(2H)-one]: the IC50 lay in the range of 100 to 1000 nM.
As for `CC(C)CCN1c2nc(Nc3ccc4[nH]ncc4c3)ncc2N(c2ccccc2)C(=O)C1C` (stereo not shown) [Example 1, 2-(1H-indazol-5-ylamino)-7-methyl-8-(3-methylbutyl)-5-phenyl-7,8-dihydropteridin-6(5H)-one], the 50% inhibitory concentration (IC50) is no more than 100 nM.
With `COc1ccc(N2C(=O)[C@@H](C)N(C3CCCCC3)c3nc(NCc4ccncc4)ncc32)cc1OC` [compound 162], the IC50 was greater than 1000 nM.
Regarding `C[C@@H]1C(=O)N(c2ccccc2)c2cnc(Nc3ccc4[nH]ncc4c3)nc2N1CCCO` [Example 77, (7R)-8-(3-hydroxypropyl)-2-(1H-indazol-5-ylamino)-7-methyl-5-phenyl-7,8-dihydropteridin-6(5H)-one], the concentration for half-maximal inhibition (IC50) is 100 to 1000 nM.
With `CO[C@H]1CC[C@H](N2c3nc(Nc4ccc5[nH]c(=O)oc5c4)ncc3N(c3cccc(C#N)c3)C(=O)[C@H]2C)CC1` [compound 229, 3-[(7R)-8-(trans-4-methoxycyclohexyl)-7-methyl-6-oxo-2-[(2-oxo-2,3-dihydro-1,3-benzoxazol-6-yl)amino]-7,8-dihydropteridin-5(6H)-yl]benzonitrile], the IC50 was no more than 100 nM.
Turning to `C[C@@H]1C(=O)N(c2cccc(C#N)c2)c2cnc(Nc3ccc4c(c3)CS(=O)(=O)N4)nc2N1C1CCCCC1` [compound 174, 3-[(7R)-8-cyclohexyl-2-[(2,2-dioxido-1,3-dihydro-2,1-benzothiazol-5-yl)amino]-7-methyl-6-oxo-7,8-dihydropteridin-5(6H)-yl]benzonitrile], the IC50 is no more than 100 nM.
With `C[C@@H]1C(=O)N(c2ccc(N3CCC(O)CC3)nc2)c2cnc(Nc3cc(F)c4[nH]ncc4c3)nc2N1C1CCCCC1` [compound 147, (7R)-8-cyclohexyl-2-[(7-fluoro-1H-indazol-5-yl)amino]-5-[6-(4-hydroxypiperidin-1-yl)pyridin-3-yl]-7-methyl-7,8-dihydropteridin-6(5H)-one], the 50% inhibitory concentration (IC50) was no more than 100 nM.
`C[C@@H]1C(=O)N(c2cccc(C#N)c2)c2cnc(Nc3cc(F)c4[nH]ncc4c3)nc2N1[C@H]1CC[C@H](C)CC1` [compound 237, 3-[(7R)-2-[(7-fluoro-1H-indazol-5-yl)amino]-7-methyl-8-(trans-4-methylcyclohexyl)-6-oxo-7,8-dihydropteridin-5(6H)-yl]benzonitrile]: the half-maximal inhibitory concentration (IC50) is no more than 100 nM.
The result for `CCOc1ccc(N2C(=O)[C@@H](C)N(C3CCC(F)(F)CC3)c3nc(Nc4cnc5[nH]ncc5c4)ncc32)cc1C#N` [compound 282, 5-[(7R)-8-(4,4-difluorocyclohexyl)-7-methyl-6-oxo-2-(1H-pyrazolo[3,4-b]pyridin-5-ylamino)-7,8-dihydropteridin-5(6H)-yl]-2-ethoxybenzonitrile] reads no more than 100 nM; that for `C[C@H]1C(=O)N(c2ccccc2)c2cnc(Nc3ccc4[nH]ncc4c3)nc2N1C1CCCC1` [Example 67, (7S)-8-cyclopentyl-2-(1H-indazol-5-ylamino)-7-methyl-5-phenyl-7,8-dihydropteridin-6(5H)-one], 100 to 1000 nM; that for `C[C@@H]1C(=O)N(c2ccc[n+]([O-])c2)c2cnc(Nc3cc(F)c4[nH]ncc4c3)nc2N1C1CCC(C)(C)CC1` [compound 304, (7R)-8-(4,4-dimethylcyclohexyl)-2-[(7-fluoro-1H-indazol-5-yl)amino]-7-methyl-5-(1-oxidopyridin-3-yl)-7,8-dihydropteridin-6(5H)-one], no more than 100 nM.
The result for `C[C@@H]1C(=O)N(c2cccc(C#N)c2)c2cnc(Nc3ccc4[nH]ncc4c3)nc2N1CC1CCCC1` [Example 81, 3-[(7R)-8-(cyclopentylmethyl)-2-(1H-indazol-5-ylamino)-7-methyl-6-oxo-7,8-dihydropteridin-5(6H)-yl]benzonitrile] reads no more than 100 nM.
For `COc1ccc(N2C(=O)[C@@H](C)N(C3CCC(F)(F)CC3)c3nc(Nc4cnc5[nH]ncc5c4)ncc32)cc1C#N` [compound 279, 5-[(7R)-8-(4,4-difluorocyclohexyl)-7-methyl-6-oxo-2-(1H-pyrazolo[3,4-b]pyridin-5-ylamino)-7,8-dihydropteridin-5(6H)-yl]-2-methoxybenzonitrile], the IC50 is no more than 100 nM.
Take `C[C@@H]1C(=O)N(c2cccc(C(=O)N(C)C)c2)c2cnc(Nc3ccc4[nH]ncc4c3)nc2N1C1CCCCC1` [Example 32, 3-[(7R)-8-cyclohexyl-2-(1H-indazol-5-ylamino)-7-methyl-6-oxo-7,8-dihydropteridin-5(6H)-yl]-N,N-dimethylbenzamide]: the IC50 is no more than 100 nM.
`CO[C@H]1CC[C@@H](N2c3nc(Nc4cc(F)c5[nH]ncc5c4)ncc3N(c3cccc(C#N)c3)C(=O)[C@H]2C)CC1` [compound 223, 3-[(7R)-2-[(7-fluoro-1H-indazol-5-yl)amino]-8-(cis-4-methoxycyclohexyl)-7-methyl-6-oxo-7,8-dihydropteridin-5(6H)-yl]benzonitrile]: the half-inhibitory concentration (IC50) is no more than 100 nM.
For `C[C@@H]1C(=O)N(c2ccccc2)c2cnc(Nc3ccc4[nH]ncc4c3)nc2N1C1CCCCC1` [Example 18, (7R)-8-cyclohexyl-2-(1H-indazol-5-ylamino)-7-methyl-5-phenyl-7,8-dihydropteridin-6(5H)-one], the IC50 was no more than 100 nM.
For `C[C@@H]1C(=O)N(c2cccc(C#N)c2)c2cnc(Nc3ccc(N)c(C(F)(F)F)c3)nc2N1C1CCC(F)(F)CC1` [compound 275], the IC50 is greater than 1000 nM.
With `CC(C)CCN1c2nc(Nc3cc(F)c4[nH]ncc4c3)ncc2N(c2ccc(OC(C)C)c(C#N)c2)C(=O)[C@H]1C` [Example 93, 5-[(7R)-2-[(7-fluoro-1H-indazol-5-yl)amino]-7-methyl-8-(3-methylbutyl)-6-oxo-7,8-dihydropteridin-5(6H)-yl]-2-(propan-2-yloxy)benzonitrile], the IC50 is no more than 100 nM.
